Reference: ChEMBL document CHEMBL1201862, “PubChem BioAssay data set” (2004)
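Five compound concentrations were applied to cells in 96-well plates for 48 hours; endpoints were derived by simple linear interpolation of the resulting dose-response curve. GI50: concentration for 50% inhibition of growth.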 Active and inactive are the calls of the source. No stated cut-off is given here; in the data, active = GI50 up to about 1.1 µM and inactive = higher.

Assays:
Test in all cases: NCI anticancer screen, dose series, 48 h
[1] = test system: MOLT-4
[2] = test system: NCI-H522
[3] = test system: TK-10
[4] = test system: UACC-257
[5] = test system: HCT-15
[6] = test system: EKVX
[7] = test system: IGROV-1
[8] = test system: RXF 393
[9] = test system: KM12
[10] = test system: T47D
[11] = test system: OVCAR-4
[12] = test system: OVCAR-3
[13] = test system: SK-OV-3
[14] = test system: A549
[15] = test system: SF-295
[16] = test system: NCI-H460
[17] = test system: CAKI-1
[18] = test system: UO-31
[19] = test system: RPMI-8226
[20] = test system: BT-549
[21] = test system: SNB-19
[22] = test system: UACC-62
[23] = test system: SF-539
[24] = test system: HOP-62
[25] = test system: SK-MEL-2
[26] = test system: MDA-MB-231
[27] = test system: LOX IMVI
[28] = test system: SW-620
[29] = test system: PC-3
[30] = test system: MCF7
[31] = test system: SK-MEL-28
[32] = test system: HCT-116
[33] = test system: DU-145
[34] = test system: SNB-75
[35] = test system: Hs-578T
[36] = test system: SK-MEL-5
[37] = test system: U-251
[38] = test system: OVCAR-8
[39] = test system: MDA-N
[40] = test system: MDA-MB-435
[41] = test system: COLO 205
[42] = test system: HOP-92
[43] = test system: Malme-3M
[44] = test system: SN12C
[45] = test system: M14
[46] = test system: K562
[47] = test system: SF-268
[48] = test system: NCI/ADR-RES
[49] = test system: 786-0
[50] = test system: ACHN
[51] = test system: HCC 2998
[52] = test system: HT-29
[53] = test system: NCI-H23
[54] = test system: NCI-H226
[55] = test system: HL-60
[56] = test system: SR
[57] = test system: A498
[58] = test system: CCRF-CEM
[59] = test system: OVCAR-5

O=NN1C(c2ccccc2)CC(=NO)CC1c1ccccc1 (stereo not drawn)
GI50 [1]: 46.3 µM (inactive)
GI50 [2]: > 100 µM (inactive)
GI50 [3]: > 100 µM (inactive)
GI50 [4]: > 100 µM (inactive)
GI50 [5]: > 100 µM
GI50 [6]: > 100 µM (inactive)
GI50 [7]: > 100 µM (inactive)
GI50 [8]: > 100 µM (inactive)
GI50 [9]: > 100 µM (inactive)
GI50 [10]: > 100 µM (inactive)
GI50 [11]: > 100 µM (inactive)
GI50 [12]: > 100 µM (inactive)
GI50 [13]: > 100 µM (inactive)
GI50 [14]: > 100 µM (inactive)
GI50 [15]: > 100 µM (inactive)
GI50 [16]: > 100 µM (inactive)
GI50 [17]: 68.4 µM (inactive)
GI50 [18]: > 100 µM (inactive)
GI50 [19]: 68.1 µM (inactive)
GI50 [20]: > 100 µM (inactive)
GI50 [21]: > 100 µM (inactive)
GI50 [22]: > 100 µM (inactive)
GI50 [23]: > 100 µM (inactive)
GI50 [24]: > 100 µM (inactive)
GI50 [25]: 6.65 µM (inactive)
GI50 [26]: > 100 µM (inactive)
GI50 [27]: > 100 µM (inactive)
GI50 [28]: > 100 µM (inactive)
GI50 [29]: 70.3 µM (inactive)
GI50 [30]: > 100 µM (inactive)
GI50 [31]: > 100 µM (inactive)
GI50 [32]: 71.1 µM (inactive)
GI50 [33]: > 100 µM (inactive)
GI50 [34]: 88.5 µM (inactive)
GI50 [35]: > 100 µM (inactive)
GI50 [36]: > 100 µM (inactive)
GI50 [37]: > 100 µM (inactive)
GI50 [38]: > 100 µM (inactive)
GI50 [39]: > 100 µM (inactive)
GI50 [40]: > 100 µM (inactive)
GI50 [41]: > 100 µM (inactive)
GI50 [42]: > 100 µM (inactive)
GI50 [43]: > 100 µM (inactive)
GI50 [44]: > 100 µM (inactive)
GI50 [45]: > 100 µM (inactive)
GI50 [46]: 43.8 µM (inactive)
GI50 [47]: > 100 µM (inactive)
GI50 [48]: > 100 µM (inactive)
GI50 [49]: > 100 µM (inactive)
GI50 [50]: > 100 µM (inactive)
GI50 [51]: 79.1 µM (inactive)
GI50 [52]: 20.5 µM (inactive)
GI50 [53]: > 100 µM (inactive)
GI50 [54]: > 100 µM (inactive)
GI50 [55]: 74.5 µM (inactive)

S=C1NNC(=S)NN1
GI50 [1]: 0.258 µM (active)
GI50 [2]: 0.432 µM (active)
GI50 [3]: > 1 µM (active)
GI50 [56]: 0.239 µM (active)
GI50 [4]: > 1 µM (active)
GI50 [5]: > 1 µM
GI50 [6]: > 1 µM (active)
GI50 [7]: 0.436 µM (active)
GI50 [9]: > 1 µM (active)
GI50 [10]: 0.951 µM (active)
GI50 [11]: > 1 µM (active)
GI50 [12]: > 1 µM (active)
GI50 [13]: > 1 µM (active)
GI50 [14]: > 1 µM (active)
GI50 [15]: 0.219 µM (active)
GI50 [16]: > 1 µM (active)
GI50 [17]: 0.225 µM (active)
GI50 [18]: > 1 µM (active)
GI50 [19]: 0.288 µM (active)
GI50 [20]: 0.522 µM (active)
GI50 [21]: > 1 µM (active)
GI50 [22]: 0.296 µM (active)
GI50 [23]: > 1 µM (active)
GI50 [57]: > 1 µM (active)
GI50 [24]: 0.292 µM (active)
GI50 [58]: 0.342 µM (active)
GI50 [25]: > 1 µM (active)
GI50 [26]: > 1 µM (active)
GI50 [27]: 0.18 µM (active)
GI50 [28]: 0.218 µM (active)
GI50 [29]: > 1 µM (active)
GI50 [30]: 0.328 µM (active)
GI50 [31]: > 1 µM (active)
GI50 [32]: 0.23 µM (active)
GI50 [33]: 0.316 µM (active)
GI50 [35]: 0.697 µM (active)
GI50 [36]: 0.887 µM (active)
GI50 [37]: 0.583 µM (active)
GI50 [38]: > 1 µM (active)
GI50 [39]: > 1 µM (active)
GI50 [41]: > 1 µM (active)
GI50 [42]: > 1 µM (active)
GI50 [43]: 0.594 µM (active)
GI50 [44]: 0.198 µM (active)
GI50 [45]: 0.533 µM (active)
GI50 [46]: 0.178 µM (active)
GI50 [47]: 0.387 µM (active)
GI50 [48]: > 1 µM (active)
GI50 [49]: > 1 µM (active)
GI50 [50]: 0.582 µM (active)
GI50 [51]: > 1 µM (active)
GI50 [52]: 0.23 µM (active)
GI50 [53]: 0.251 µM (active)
GI50 [54]: > 1 µM (active)
GI50 [55]: > 1 µM (active)

CC(C)(C)OC(=O)N1CCC[C@H]1CSC[C@@H]1CCCN1C(=O)OC(C)(C)C
GI50 [1]: 16.7 µM (inactive)
GI50 [2]: 24 µM (inactive)
GI50 [3]: 56.9 µM (inactive)
GI50 [4]: 28.8 µM (inactive)
GI50 [5]: 27.9 µM
GI50 [6]: 32.8 µM (inactive)
GI50 [7]: 43.4 µM (inactive)
GI50 [8]: 24.8 µM (inactive)
GI50 [9]: 20.9 µM (inactive)
GI50 [10]: 20.6 µM (inactive)
GI50 [11]: 28.7 µM (inactive)
GI50 [12]: 22.4 µM (inactive)
GI50 [13]: 69.5 µM (inactive)
GI50 [14]: 24.4 µM (inactive)
GI50 [15]: 30.8 µM (inactive)
GI50 [16]: 34.3 µM (inactive)
GI50 [17]: 32.4 µM (inactive)
GI50 [59]: 34.2 µM (inactive)
GI50 [18]: 26.2 µM (inactive)
GI50 [20]: 23.8 µM (inactive)
GI50 [21]: 25.4 µM (inactive)
GI50 [22]: 21.7 µM (inactive)
GI50 [24]: 41.5 µM (inactive)
GI50 [58]: 24.2 µM (inactive)
GI50 [25]: 18.3 µM (inactive)
GI50 [26]: 31.5 µM (inactive)
GI50 [27]: 17.6 µM (inactive)
GI50 [28]: 30.3 µM (inactive)
GI50 [29]: 26.9 µM (inactive)
GI50 [30]: 28.6 µM (inactive)
GI50 [31]: 24.6 µM (inactive)
GI50 [32]: 25.6 µM (inactive)
GI50 [33]: 44 µM (inactive)
GI50 [34]: 23.9 µM (inactive)
GI50 [35]: 27 µM (inactive)
GI50 [36]: 18.7 µM (inactive)
GI50 [37]: 29.7 µM (inactive)
GI50 [38]: 29.3 µM (inactive)
GI50 [39]: 29.4 µM (inactive)
GI50 [40]: 20.7 µM (inactive)
GI50 [41]: 16.8 µM (inactive)
GI50 [42]: 8.43 µM (inactive)
GI50 [43]: 25.6 µM (inactive)
GI50 [44]: 32.2 µM (inactive)
GI50 [45]: 18.6 µM (inactive)
GI50 [46]: 24.5 µM (inactive)
GI50 [47]: 39.4 µM (inactive)
GI50 [48]: 18.7 µM (inactive)
GI50 [49]: 38.8 µM (inactive)
GI50 [50]: 32.2 µM (inactive)
GI50 [51]: 39.8 µM (inactive)
GI50 [52]: 17.8 µM (inactive)
GI50 [53]: 20.7 µM (inactive)
